# Columns and labels:
# [1] = molecular target: human glucagon receptor (GcgR) (Homo sapiens, UniProt P47871); assay: Human glucagon receptor activation (Table 1); type: cell-based; conditions: read-out: EC50 (nM) hGcgR
# [2] = test system: diet-induced obese (DIO) mice; assay: Weight-lowering and metabolic pharmacology in diet-induced obese mice on HFHSD; type: in vivo; conditions: for food intake: DIO mice (FIG. 5C); for effect on body weight: DIO mice on HFHSD, equimolar doses, daily s.c. (FIG. 5A)
# Method: (§1) For pharmacology studies on energy metabolism in obese mice (DIO mice), male C57Bl/6j mice (Jackson Laboratories) were fed a diabetogenic diet (Research Diets D12331), which is a high-sucrose diet with 58% kcal from fat 25.5% kcal from carbohydrates, and 16.4% kcal from protein. Dietary challenges began at 8 weeks of age. HFHSD mice were single- or group-housed on a 12:12-h light-dark cycle at 22° C. with free access to food and water. Mice were maintained under these conditions for a minimum of 16 weeks before initiation of pharmacological studies and were between the ages of 6 months to 12 months old. All injections and tests were performed during the light cycle. Compounds were administered in a vehicle of 1% Tween-80 and 1% DMSO and were given by daily subcutaneous injections at the indicated doses at a volume of 5 μl per g body weight. Mice were randomized and evenly distributed to test groups according to body weight and body composition. If ex vivo molecular biology/histology/biochemistry analyses were performed, the entire group of mice for each treatment was analyzed and scored in a blinded fashion.
# Compounds were administered by repeated subcutaneous injections in the middle of the light phase at the indicated doses with the indicated durations. Co-administration of compounds was administered by single formulated injections. Body weights and food intake were measured every day or every other day after the first injection. All studies with wild-type mice were performed with a group size of n=8 or greater using mice on a C57B16j background.
# For assessment of intraperitoneal glucose tolerance during chronic treatment, the challenge tests were performed at least 24 hours after the last administration of compounds. The investigators were not blinded to group allocation during the in vivo experiments or to the assessment of longitudinal endpoints. All rodent studies were approved by and performed according to the guidelines of the Institutional Animal Care and Use Committee of the Helmholtz Center Munich, University of Cincinnati, Universite de Lyon, and in accordance with guidelines of the Association for the Assessment and Accreditation of Laboratory and Animal Care (AAALAC # Unit Number: 001057) and appropriate federal, state and local guidelines, respectively.
# Whole-body composition (fat and lean mass) was measured using nuclear magnetic resonance technology (EchoMRI).
# [3] = test system: diet-induced obese (DIO) mice; assay: Heart weight / cardiac hypertrophy in DIO mice; conditions: mouse, in vivo
# Method: For pharmacology studies on energy metabolism in obese mice (DIO mice), male C57Bl/6j mice (Jackson Laboratories) were fed a diabetogenic diet (Research Diets D12331), which is a high-sucrose diet with 58% kcal from fat 25.5% kcal from carbohydrates, and 16.4% kcal from protein. Dietary challenges began at 8 weeks of age. HFHSD mice were single- or group-housed on a 12:12-h light-dark cycle at 22° C. with free access to food and water. Mice were maintained under these conditions for a minimum of 16 weeks before initiation of pharmacological studies and were between the ages of 6 months to 12 months old. All injections and tests were performed during the light cycle. Compounds were administered in a vehicle of 1% Tween-80 and 1% DMSO and were given by daily subcutaneous injections at the indicated doses at a volume of 5 μl per g body weight. Mice were randomized and evenly distributed to test groups according to body weight and body composition. If ex vivo molecular biology/histology/biochemistry analyses were performed, the entire group of mice for each treatment was analyzed and scored in a blinded fashion. Compounds were administered by repeated subcutaneous injections in the middle of the light phase at the indicated doses with the indicated durations. […] Body weights and food intake were measured every day or every other day after the first injection. […]
# [4] = test system: diet-induced obese (DIO) mice; assay: Indirect calorimetry in DIO mice (energy expenditure, RER, home-cage activity, food intake); type: in vivo
# Method: as §1, with “fashion. Energy intake, energy expenditure, respiratory exchange ratio, and home-cage activity were assessed using a combined indirect calorimetry system (TSE Systems). O2 consumption and CO2 production were measured every 10 min for a total of up to 160 h (after 24 h of adaptation) to determine the respiratory quotient and energy expenditure after an initial treatment regimen. Food intake was determined continuously for the same time as the indirect calorimetry assessments by integration of scales into the sealed cage environment. Home-cage locomotor activity was determined using a multidimensional infrared light beam system with beams scanning the bottom and top levels of the cage, and activity being expressed as beam breaks.” for “fashion.”
Compound,EC50 [1],food intake [2],effect on body weight [2],"absolute decrease in body weight from baseline ([2]; DIO mice, 100 nmoles/kg, daily subcutaneous treatment, after a week (FIG. 5A))",heart weight / cardiac hypertrophy [3],"glucose tolerance ([2]; DIO mice, higher dose, equimolar (FIG. 5D))",food intake during calorimetry ([4]; DIO mice (FIG. 6D)),body weight loss during calorimetry study ([4]; DIO mice (FIG. 6E)),home cage / ambulatory activity ([4]; DIO mice (FIG. 6F)),"whole-body energy expenditure ([4]; DIO mice, indirect calorimetry (FIG. 6C))"
"CC[C@H](C)[C@H](NC(=O)[C@H](Cc1ccccc1)NC(=O)[C@H](CCC(=O)O)NC(=O)[C@H](CCCCN)NC(=O)[C@H](C)NC(=O)[C@H](C)NC(=O)[C@H](CCC(N)=O)NC(=O)[C@H](CCC(=O)O)NC(=O)[C@H](CCC(=O)O)NC(=O)[C@H](CC(C)C)NC(=O)[C@H](Cc1ccc(O)cc1)NC(=O)[C@H](CO)NC(=O)[C@H](CO)NC(=O)[C@@H](NC(=O)[C@H](CC(=O)O)NC(=O)[C@H](CO)NC(=O)[C@@H](NC(=O)[C@H](Cc1ccccc1)NC(=O)[C@@H](NC(=O)CNC(=O)[C@H](CCC(=O)O)NC(=O)C(C)(C)NC(=O)[C@@H](N)Cc1c[nH]cn1)[C@@H](C)O)[C@@H](C)O)C(C)C)C(=O)N[C@@H](C)C(=O)N[C@@H](Cc1c[nH]c2ccccc12)C(=O)N[C@@H](CC(C)C)C(=O)N[C@H](C(=O)N[C@@H](CCCCN)C(=O)NCC(=O)NCC(=O)N1CCC[C@H]1C(=O)N[C@@H](CO)C(=O)N[C@@H](CO)C(=O)NCC(=O)N[C@@H](C)C(=O)N1CCC[C@H]1C(=O)N1CCC[C@H]1C(=O)N1CCC[C@H]1C(=O)N[C@@H](CO)C(=O)N[C@@H](CCCCNC(=O)CCC(=O)N[C@@H](Cc1cc(I)c(Oc2ccc(O)c(I)c2)c(I)c1)C(=O)O)C(N)=O)C(C)C [IUB687, IUB48-(Suc-T3-OH)-amide]",> 100 nM,no reductions in food intake,significantly lowered body weight in a dose-dependent manner,11%,,,,,,
"CC[C@H](C)[C@H](NC(=O)[C@H](Cc1ccccc1)NC(=O)[C@H](CCC(=O)O)NC(=O)[C@H](CCCCN)NC(=O)[C@H](C)NC(=O)[C@H](C)NC(=O)[C@H](CCC(N)=O)NC(=O)[C@H](CCC(=O)O)NC(=O)[C@H](CCC(=O)O)NC(=O)[C@H](CC(C)C)NC(=O)[C@H](Cc1ccc(O)cc1)NC(=O)[C@H](CO)NC(=O)[C@H](CO)NC(=O)[C@@H](NC(=O)[C@H](CC(=O)O)NC(=O)[C@H](CO)NC(=O)[C@@H](NC(=O)[C@H](Cc1ccccc1)NC(=O)[C@@H](NC(=O)CNC(=O)[C@H](CCC(=O)O)NC(=O)C(C)(C)NC(=O)[C@@H](N)Cc1c[nH]cn1)[C@@H](C)O)[C@@H](C)O)C(C)C)C(=O)N[C@@H](C)C(=O)N[C@@H](Cc1c[nH]c2ccccc12)C(=O)N[C@@H](CC(C)C)C(=O)N[C@H](C(=O)N[C@@H](CCCCN)C(=O)NCC(=O)NCC(=O)N1CCC[C@H]1C(=O)N[C@@H](CO)C(=O)N[C@@H](CO)C(=O)NCC(=O)N[C@@H](C)C(=O)N1CCC[C@H]1C(=O)N1CCC[C@H]1C(=O)N1CCC[C@H]1C(=O)N[C@@H](CO)C(=O)N[C@@H](CCCCNC(=O)CC[C@H](NC(=O)[C@@H](N)Cc1cc(I)c(Oc2ccc(O)c(I)c2)c(I)c1)C(=O)O)C(N)=O)C(C)C [IUB686, IUB48-(gE-T3-NH2)-amide]",> 100 nM,,,,did not increase raw heart weight,,,,,
CC[C@H](C)[C@H](NC(=O)[C@H](Cc1ccccc1)NC(=O)[C@H](CCC(=O)O)NC(=O)[C@H](CCCCN)NC(=O)[C@H](C)NC(=O)[C@H](C)NC(=O)[C@H](CCC(N)=O)NC(=O)[C@H](CCC(=O)O)NC(=O)[C@H](CCC(=O)O)NC(=O)[C@H](CC(C)C)NC(=O)[C@H](Cc1ccc(O)cc1)NC(=O)[C@H](CO)NC(=O)[C@H](CO)NC(=O)[C@@H](NC(=O)[C@H](CC(=O)O)NC(=O)[C@H](CO)NC(=O)[C@@H](NC(=O)[C@H](Cc1ccccc1)NC(=O)[C@@H](NC(=O)CNC(=O)[C@H](CCC(=O)O)NC(=O)C(C)(C)NC(=O)[C@@H](N)Cc1c[nH]cn1)[C@@H](C)O)[C@@H](C)O)C(C)C)C(=O)N[C@@H](C)C(=O)N[C@@H](Cc1c[nH]c2ccccc12)C(=O)N[C@@H](CC(C)C)C(=O)N[C@H](C(=O)N[C@@H](CCCCN)C(=O)NCC(=O)NCC(=O)N1CCC[C@H]1C(=O)N[C@@H](CO)C(=O)N[C@@H](CO)C(=O)NCC(=O)N[C@@H](C)C(=O)N1CCC[C@H]1C(=O)N1CCC[C@H]1C(=O)N1CCC[C@H]1C(=O)N[C@@H](CO)C(=O)N[C@@H](CCCCN)C(N)=O)C(C)C [IUB48],> 100 nM,,minimal impact on body weight,,,,,,,
"N[C@@H](Cc1cc(I)c(Oc2ccc(O)c(I)c2)c(I)c1)C(=O)O [Peptide T3, Triiodothyronine]",,increased,minimal impact on body weight,,,improved glycemic control,hyperphagia,less body weight loss,significantly increased home cage activity,substantially increased whole-body energy expenditure
